Experiments:
[1] = biological target: T1, cyclooxygenase (Mus musculus, UniProt P22437); assay: In vitro cyclooxygenase inhibition, release of 6-keto-PGF1α from zymosan-stimulated peritoneal macrophages; type: cell-based; details: zymosan-stimulated mouse peritoneal macrophage cells, 10^-5 mole/l
T1 construct: A cell suspension containing peritoneal cells from male mice 8-10 weeks old was obtained in a known manner; endogenous in cells; host or cells: mouse peritoneal macrophages (primary, adherent)
T1 sequence (P22437 27-602): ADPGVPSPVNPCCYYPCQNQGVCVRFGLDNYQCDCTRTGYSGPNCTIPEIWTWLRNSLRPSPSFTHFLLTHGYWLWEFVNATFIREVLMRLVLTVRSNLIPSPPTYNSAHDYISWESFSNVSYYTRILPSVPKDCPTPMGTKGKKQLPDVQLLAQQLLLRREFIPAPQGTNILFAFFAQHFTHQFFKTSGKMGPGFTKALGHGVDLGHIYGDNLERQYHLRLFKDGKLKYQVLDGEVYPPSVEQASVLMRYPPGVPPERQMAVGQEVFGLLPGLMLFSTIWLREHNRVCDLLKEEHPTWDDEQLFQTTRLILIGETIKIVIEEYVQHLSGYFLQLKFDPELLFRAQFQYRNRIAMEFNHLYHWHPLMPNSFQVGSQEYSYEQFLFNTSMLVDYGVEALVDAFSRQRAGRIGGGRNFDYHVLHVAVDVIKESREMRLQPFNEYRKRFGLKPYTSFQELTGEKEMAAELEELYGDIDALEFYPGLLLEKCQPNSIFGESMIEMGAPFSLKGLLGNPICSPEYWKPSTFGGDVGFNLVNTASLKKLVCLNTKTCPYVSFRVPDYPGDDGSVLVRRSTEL
Description: (§1) 5. In Vitro Determination of Cyclooxygenase Inhibition And 5-lipoxygenase Inhibition.
(§2) After a cell is activated, arachidonic acid contained in cell membranes is metabolized in two ways. Leucotrienes, inter alia leucotriene C4, are formed due to the action of the enzyme 5-lipoxygenase (=5-LO), and prostanoids are formed due to the action of the enzyme cyclooxygenase (=CO). In in vitro systems these metabolites are secreted from the cell.
(§3) To evaluate the cyclooxygenase-inhibiting and 5-lipoxygenase-inhibiting properties of the test substances, their inhibitory activity on the biosynthesis of the arachidonic acid derivatives leucotriene C4 (=LTC4) and 6-keto-prostaglandin F1α (=6-keto-PGF1α) was determined in vitro on mouse peritoneal macrophage cells. For this purpose the LTC4 and 6-keto-PGF1α contents of a mouse peritoneal macrophage cell culture medium were determined by zymosan stimulation as described by Scott et al. (J. Exp. Med. 152 (1980), 324-335) and by Fradin et al., (Prostaglandins, 33 (1987), 579-589).
(§4) A cell suspension containing peritoneal cells from male mice 8-10 weeks old was obtained in a known manner. A solution marketed under the designation RPMI 1640 (Manufactured by Gibco) was used as the cell culture medium, to which heparin (10 international units/ml) and antibiotics were added according to the procedure of Bonney et al. (Biochem. J. 176 (1978) 422-433). The cell suspension was adjusted to a cell concentration of 10^6 cells per ml and distributed uniformly on titer dishes containing 24 1-ml titer cells (wells). These were kept for two hours in a humidified incubator filled with air enriched with 7% CO2. Cells not adhering to the titer well walls were then removed by washing. The remaining macrophage cells adhering to the walls were incubated for about 12 hours in a suspension medium to which 0.1% of bovine serum albumin (BSA=Bovine Serum Albumin) was added. The suspension medium was then replaced by a Hanks salt solution (=Hanks Balanced Salt Solution=HBSS) with 10 mmoles of HEPES (=hydroxyethylpiperazinoethanesulfonic acid) to which a 0.1% strength solution of the test substances in aqueous, 1% strength dimethylformamide or only the solvent had been added. After 15 minutes the arachidonic acid metabolism was stimulated by adding […] of zymosan (=glycoprotein mixture isolated from cell walls of beer yeast, Saccharomyces cerevisiae, Manufactured by Sigma Chemical Co., Munich) per titre cell. After 2 hours samples of the respective supernatant liquid in each cell were examined for their 6-keto-PGF1α and LTC4 contents by an enzyme immunoassay (=EIA). This EIA is carried out following the method of Pradelles et al. (Analytical Chem. 57 (1985), 1170-1173). The determination of LTC4 and the determination of 6-keto-PGF1α were each carried out on suitable dilutions of the samples (1:50 to 1:250 for the LTC4 determination and 1:250 to 1:1,250 for the 6-keto-PGF1α determination) in comparison with a comparative scale. To determine the inhibiting effect of a 10^-5 molar concentration of the compounds, the amounts of reference eicosanoid were determined, and the inhibiting effect was calculated therefrom in % inhibition compared to the measurements of the zymosan controls.

[2] = biological target: T2, 5-lipoxygenase (Mus musculus, UniProt P48999); assay: In vitro 5-lipoxygenase inhibition, release of LTC4 from zymosan-stimulated peritoneal macrophages; type: cell-based; details: zymosan-stimulated mouse peritoneal macrophage cells, 10^-5 mole/l
T2 construct: A cell suspension containing peritoneal cells from male mice 8-10 weeks old was obtained in a known manner; endogenous in cells; host or cells: mouse peritoneal macrophages (primary, adherent)
T2 sequence (P48999 1-674): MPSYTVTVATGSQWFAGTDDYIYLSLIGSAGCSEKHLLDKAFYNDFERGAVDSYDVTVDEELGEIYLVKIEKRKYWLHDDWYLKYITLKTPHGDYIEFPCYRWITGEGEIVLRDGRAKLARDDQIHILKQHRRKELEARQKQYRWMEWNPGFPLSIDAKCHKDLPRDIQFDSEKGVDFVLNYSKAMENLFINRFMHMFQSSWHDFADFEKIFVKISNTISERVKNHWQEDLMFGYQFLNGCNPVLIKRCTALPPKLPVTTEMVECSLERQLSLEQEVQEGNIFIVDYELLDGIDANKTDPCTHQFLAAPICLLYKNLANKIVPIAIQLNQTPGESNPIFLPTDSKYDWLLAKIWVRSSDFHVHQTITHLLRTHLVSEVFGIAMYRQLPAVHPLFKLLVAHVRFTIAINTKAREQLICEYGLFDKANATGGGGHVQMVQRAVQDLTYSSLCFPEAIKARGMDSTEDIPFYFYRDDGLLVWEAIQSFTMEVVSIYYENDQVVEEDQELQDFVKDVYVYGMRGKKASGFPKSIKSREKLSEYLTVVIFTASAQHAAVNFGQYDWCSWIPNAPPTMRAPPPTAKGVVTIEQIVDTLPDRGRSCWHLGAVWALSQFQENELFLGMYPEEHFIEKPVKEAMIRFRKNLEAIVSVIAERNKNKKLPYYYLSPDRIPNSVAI
Description: as §1, §2, §3, §4

[3] = test system: PAF-induced aggregation of rabbit blood platelets; assay: Anti-PAF activity in vitro, PAF-induced platelet aggregation; type: cell-based, rabbit (New Zealand hybrids); details: Oryctolagus cuniculus, test substance 10^-5 mole/l, pH 7.4
Description: 4. Determination of Anti-PAF Activity In Vitro
PAF (=Platelet Activating Factor) is a phospholipid mediator which has many effects. Activation of platelet aggregation induces protracted broncho-contraction and hyper-reactivity of the air paths.
In this test the effect of the test substances on platelet aggregation induced by adding PAF to a suspension of platelets obtained from rabbit blood is investigated using the method described by Mikashima et al. (Jap. J. Pharmacol. 44 (1987) 387-391).
A suspension of platelets obtained from rabbit blood containing 4×10^9 platelets/ml in a modified Tyrode buffer solution (=Tyrode solution with 1.3 mM/l CaCl2 and 2.5 g/l gelatine added) adjusted to pH 7.4 was used. Tyrode solution is an aqueous solution containing 136.9 mmoles NaCl, 2.68 mmoles KCl, 2.31 mmoles CaCl2, 1.0 mmole MgCl2, 11.9 mmoles NaHCO3, 1.45 mmoles NaH2 PO4 and 5.55 mmoles glucose per liter. The platelets were obtained from 10 ml blood samples from each of three rabbits (New Zealand hybrids, body weight 3-4 kg). For this the blood samples were treated with ethylenediamine tetraacetic acid and washed according to the method of Artley et al. (Brit. J. Hematol. 19 (1970), 7-17). A platelet-rich plasma was then initially separated by centrifuging (20 minutes at 400×g). The blood platelets were separated from the plasma by recentrifuging for 15 minutes at 1,400×g. The platelets remaining as sediment after centrifuging were resuspended in a Tyrode buffer solution (but without calcium). 0.4 mmole of lysine acetylsalicylate was then added, and after 15 minutes the platelets were sedimented again. The sediment was resuspended in the aforementioned modified Tyrode buffer solution, and the number of platelets in the resulting suspension was adjusted to the desired content.
A 40×10^-9 molar PAF solution was used as a reagent. This solution was made from a 1.8×10^-3 molar stock solution in chloroform. For this purpose a 10 μl sample of the stock solution was evaporated to dryness and redissolved in 180 μl of the modified Tyrode solution to which 0.25% of lipid-free bovine serum albumin had been added. From this 10^-5 molar working solutions were then prepared and stored frozen. Samples of these solutions were appropriately diluted for the tests.
To carry out the test 50 μl of the platelet suspension and 10 μl of a 40×10^-5 molar solution of the compound being investigated were added with stirring (1,000 rpm) to 330 μl of the modified Tyrode buffer solution in an aggregation tube provided with a small magnetic stirrer. This corresponds to a final test substance concentration of 10^-5 mole/l. After 90 seconds preincubation time, 10 μl of the PAF preparation were added. The aggregation occurring in the aggregation tubes was measured over 4-5 minutes with the aid of a computerized aggregometer.
The aggregation which occurred in test tubes containing only platelet suspension was evaluated as 0%, whereas the aggregation which occurred in test tubes containing platelet suspension and PAF preparation was evaluated as 100%. The aggregation which still occurred during the inhibition of the PAF induced platelet aggregation due to the addition of the test substances was measured, and the resulting aggregation inhibition was calculated therefrom in %.

[4] = test system: mice; details: mouse, in vivo, 1440 min
Protocol: 2. Determination of Minimum Toxic Dose
Maximum doses of 300 mg/kg of the test substance were administered orally to male mice weighing 20-25 g. The animals were observed carefully for 3 hours for toxicity symptoms. In addition, all symptoms and deaths were recorded over a period of 24 hours after administration. Associated symptoms were also observed and recorded. If death or severe toxic symptoms were observed, additional mice were administered increasingly lower doses. The lowest dose which produced death or severe toxic symptoms is given in the following Table B as the minimum toxic dose.

[5] = test system: passive cutaneous anaphylaxis (PCA); assay: Inhibition of passive cutaneous anaphylaxis (PCA) in rats; type: in vivo, Sprague-Dawley rats; details: Rattus norvegicus, 1 h, 2 × 10^-5 mole/kg per os, one hour before ovalbumin challenge
Protocol: (§5) 1. Determining Inhibition of Passive Cutaneous Anaphylaxis (PCA) and Histamine-Induced Anaphylactoid Cutaneous Reaction
The PCA reaction is carried out following the methods described by Goose et al. (J. N. Immunology 16 (1969), 749) and by Martin et al. (Arch. Pharmacol. 316 (1981), 186).
The IgE-rich ovalbumin antiserum used in the test was obtained from immunized Brown-Norway rats. The were immunized with an intraperitoneal injection of a mixture of 100 μg of ovalbumin with a Bordetella pertussis suspension (Vaxicoq™, Manufactured by Institute Merieux, containing 5×10^9 organisms and 1.25 mg Al(OH)3). After 20 days the animals were re-immunized with a further intraperitoneal injection of a solution of 10 μg ovalbumin in 0.5 ml physiological saline solution. After a further four days the blood was removed from the animals and centrifuged. The resulting antiserum was stored at -20° C. until use.
(§6) The inhibition of the passive cutaneous anaphylaxis and of the anaphylactoid cutaneous reaction induced by histamine was determined as follows:
(§7) Sprague-Dawley rats having a body weight of 150-180 g were injected intradermally in one flank with 50 μl of a 1:75 dilution of the IgE-rich ovalbumin antiserum in physiological saline solution to passively sensitize them to ovalbumin.
(§8) 24 hours after sensitization a solution of 8.25 mg/kg of ovalbumin and 26.4 mg/kg of a blue dye (Evans's Blue) was administered to the rats intravenously according to Martin et al. to trigger passive cutaneous anaphylaxis.
(§9) On the day of the experiment the test substances were dissolved in distilled water which contained 1 vol. % dimethylformamide and 1 vol. % of Tween™ 20 (=polyoxyethylene (20) sorbitan monolaurate). One hour before administration of the ovalbumin challenge, each animal was orally administered 2×10^-5 mole/kg of test substance in 0.5 ml of solution. For comparison purposes a control group received only the solvent.
(§10) The edematous anaphylactic (PCA) and anaphylactoid (histamine-induced) reactions caused by the stimulation of the intravenous ovalbumin injection, which manifested themselves by edema formation, swelling and exudation of blue dye, were evaluated 30 minutes after their initiation by the intravenous ovalbumin injection. This was done by visually determining the extent to which the blue dye emerged at the sites of edema formation. The percentage inhibition of anaphylactic and anaphylactoid reactions induced by the test substances in comparison with the reactions of the control animals not treated with any test substance was determined using comparison scales.
(§11) The results obtained using compounds of formula I according to the foregoing test methods are shown in the following Table A. The example numbers given for the compounds of formula I relate to the subsequent preparative examples.

[6] = test system: histamine-induced anaphylactoid cutaneous reaction; assay: Inhibition of histamine-induced anaphylactoid cutaneous reaction in rats; type: in vivo, Sprague-Dawley rats; details: Rattus norvegicus, 1 h, 2 × 10^-5 mole/kg per os, one hour before ovalbumin challenge
Protocol: as §5, §6, §7, §8
To determine the histamine-induced anaphylactoid skin reaction, the animals are injected intradermally in the flank opposite to the antiserum administration with 50 μl of a physiological saline solution containing 0.8 mg/ml histamine directly before the intravenous injection of the solution containing the ovalbumin and the blue dye.
as §9, §10, §11

SMILES	% inhibition upon release of 6-keto-PGF1α [1]	% inhibition upon release of LTC4 [2]	inhibition at 10 µM [3]	Minimum toxic dose [4]	inhibition in vivo at 20 µmol/kg [5]	inhibition in vivo at 20 µmol/kg [6]
Cc1ccnc(N2CCN(C3Sc4ccccc4NC3=O)CC2)c1 (stereo not drawn) [Example 5, 2-[4-(4-methylpyridin-2-yl)-piperazin-1-yl]-2H-1,4-benzothiazine-3(4H)-one]	36%	72%	–	–	–	–
Cc1ccnc(N2CCN(CCCC3Oc4ccc(C)cc4NC3=O)CC2)c1 (stereo not drawn) [Example 22]	–	–	42%	300 mg/kg	69%	45%

— patent publication US5332733A, “Heterocyclically substituted piperazinoakylbenzoxazine and piperazinoalkylbenzothiazine compounds, processes for preparing them, and medicaments containing them” (Kali-Chemie Pharma GmbH, priority 1990, dated 1994)
